According to PubChem BioAssay AID2305 (GlaxoSmithKline (GSK), 2010):
Values joined by “and” are separate entries in the source; they are usually repeats but may differ in a detail not shown here. Equal values may be shown once.

What follows are compounds tested on P. falciparum 3D7 growth, pLDH absorbance (assay: P. falciparum 3D7 growth inhibition, dose response, strain 3D7 (AID 2305)).

Compound	IC50
Nc1nc(N)c2c(Oc3cc(Cl)c(Cl)c(Cl)c3)cccc2n1	800 nM
NC(=O)c1ccc(-c2ccc3ccnc(N)c3c2)cc1	420 nM
Cn1ccnc1CNC(=O)c1ccc(-c2ccc(-c3nc4ccc(C(F)(F)F)cc4[nH]3)s2)cc1	700 nM
Cc1onc(-c2ccc(Cl)cc2)c1-c1ccnn1S(=O)(=O)c1ccc(Cl)cc1	710 nM
CCCCCN1CCC(NS(=O)(=O)c2cccc(C(=O)Nc3ccc(Cl)cc3)c2)CC1	920 nM
O=C(Nc1ccc(Cn2ncc(N3CCCNCC3)c(Cl)c2=O)cc1)Nc1ccc(F)cc1[N+](=O)[O-]	1100 nM
C=CC[C@H](C[C@H](O)[C@H](Cc1ccccc1)NC(=O)c1ccc(-n2cccn2)cc1)C(=O)NC1CCCCC1	810 nM
O=C(Cc1cccc2ccccc12)NC1CCN(c2ccnc3cc(Cl)ccc23)C1 (stereo not given)	250 nM
CCNc1cc(C(=O)N[C@@H](Cc2ccccc2)[C@H](O)CNC23CCC(CC2)C3)cc(N2CCCCS2(=O)=O)c1	30 nM
CC(C)CN1CCCN(Cc2cccc(NC(=O)c3cc4ccccc4s3)c2)CC1	1770 nM
FC(F)(F)c1ccc2nc(-c3cccc(-c4ccc(CNCC5CCCO5)cc4)c3)[nH]c2c1 (stereo not given)	280 nM
COc1cc(SC)ccc1C(=O)N1CC(C)CC(C)C1 (stereo not given)	350 nM
COc1cccc2c(Oc3ccccc3C)ccnc12	1230 nM
Cc1c(Cc2ccc(C(C)C)cc2)cnc2nc(N)nc(N)c12	300 nM
O=C(Nc1cccc(-c2nn3ncccc3c2-c2ccnc(Nc3ccccc3)n2)c1)c1c(F)cccc1F	730 nM
O=C(Nc1cccc(-c2cccc(-c3nc4ccc(C(F)(F)F)cc4[nH]3)c2)c1)Nc1ccc(F)c(F)c1F	120 nM
COc1cc2nc(NCCc3ccccc3)nc(NCc3cc(C)no3)c2cc1OC	240 nM
O=C(C=Cc1cn(-c2ccccc2)nc1-c1ccccc1)N1CCN(c2ccncc2)CC1	960 nM
CCOc1ccc(N(CC)S(=O)(=O)c2cc(Br)cc3c2N(C(=O)C2CC2)CC3)cc1	130 nM
COc1cccc2cc(C(=O)N[C@@H](CC(C)C)C(=O)N[C@H](/C=N/N3CCOC3=O)CC(C)C)oc12	740 nM
O=C(/C=C/c1ccc(Cl)c(Cl)c1)NCCCCCN1CCN(C(=O)Nc2ccc(Cl)c(C(F)(F)F)c2)CC1	820 nM
C[C@@H](Oc1cc(-n2cnc3ccc(NC(=O)NC(C)(C)C)cc32)sc1C(N)=O)c1ccccc1Cl	330 nM
CC(=O)c1c(C)[nH]c(C(=O)Nc2ccc(-c3nc4ccc(C)cc4s3)cc2)c1C	840 nM
CC1(C)N=C(N)N=C(N)N1OCCCOc1ccc(N)cc1	10 nM

Compound	IC50
COc1ccc(C=CC(=O)NC2CCC(CN3CCC(c4c[nH]c5ccccc45)CC3)CC2)cc1 (stereo not given)	780 nM and 810 nM
O[C@@H](c1cccc2ccccc12)[C@@H]1CN(CCc2ccccc2)CC[C@@]1(O)c1ccccc1	140 nM
CCOC(=O)c1c(C)n(-c2ccccc2)c2ccc(OC(=O)c3ccc(S(=O)(=O)N(CC)CC)cc3)cc12	750 nM
COC1CCC(C(=O)Nc2ccc(-c3cccc(-c4nc5c(C)cccc5[nH]4)c3)cc2)CC1 (stereo not given)	580 nM
CCCCCCCSc1ccc(CC(C)NCC(O)c2cccc(Cl)c2)cc1 (stereo not given)	180 nM
COc1cc2c(cc1C(F)(F)F)N(C(=O)Nc1cc(Br)cc(-c3cccnc3)c1)CC2	860 nM
COc1ccc2nccc(N3CCC(SCCNCc4ccc5c(n4)NC(=O)CO5)C3)c2n1 (stereo not given)	800 nM
Cc1cccc2[nH]c(-c3ccc(-c4cccc(CN5CCC(CCN6CCCCC6)CC5)c4)s3)nc12	140 nM
O=C(/C=C/c1c(Cl)cccc1Cl)NC1CCC(CN2CCC(c3c[nH]c4ccncc34)CC2)CC1 (stereo not given)	160 nM
COc1ccc2nccc([C@@H](O)CN3CCC(NCc4cc5c(F)ccc(F)c5[nH]4)CC3)c2c1	140 nM
CCC(C)(C)NC(=O)C(c1cccc(OC)c1)N(C(=O)CNC(=O)c1cccs1)c1ccc2c(c1)OCCO2 (stereo not given)	830 nM
Cc1ccccc1OCC(O)CNC1CCC(NCC(O)COc2ccccc2C)CC1 (stereo not given)	1190 nM
N#Cc1ccc2c(c1)CCN(CCC1CCC(NC(=O)c3cccc(-c4ccc(F)cc4)c3)CC1)CC2 (stereo not given)	820 nM
Cc1[nH]c(C)c(-c2ccc(Oc3cc(Cl)cc(Cl)c3)cc2)c(=O)c1Cl	520 nM
Cc1[nH]nc2ccc(-c3cc(OC[C@@H](N)Cc4ccccc4)cnc3-c3cc4ccccc4s3)cc12	810 nM
COc1ccc(OC)c(-c2ccc(=O)n(CC(=O)Nc3cccc4ccccc34)n2)c1	900 nM
O=C(Nc1ccc(-c2nc3ccccc3[nH]2)cc1)C1CCN(Cc2cccc(F)c2F)CC1	1100 nM
Cc1ccc(-c2ccn(Cc3cccc(OCc4ccccc4)c3)n2)cn1 (tested in a mixture with another compound)	1180 nM
CCc1ccc(O)c(-c2cc(C(=O)Nc3ccc(OC)c(Cl)c3)[nH]n2)c1	870 nM
COc1ccc(NC(=O)NC2CCN(c3ccnc4cc(Cl)ccc34)CC2)cc1	730 nM
Oc1cccc(Nc2ccnc3cc(-c4cc5ccccc5o4)ccc23)c1	760 nM
CN(C)CCNC(=O)c1ccc2c(c1)n(C1CCN(S(=O)(=O)c3ccc(-c4ccccc4)cc3)CC1)c(=O)n2CC1CCCCC1	620 nM
Nc1nc(N)c2c(ccc3c2ccn3CCCC(F)(F)F)n1	100 nM
Cc1ccc(Nc2nccc(N(C)c3ccc4c(c3)nc(NC(=O)Cc3ccc(Cl)c(Cl)c3)n4C)n2)cc1S(N)(=O)=O	1110 nM

Compound	IC50
CCN(CC)CCN(Cc1ccc(-c2ccc(C(F)(F)F)cc2)nc1)C(=O)Cn1c(SCc2ccc(F)cc2)nc(=O)c2sccc21	840 nM
CC[C@H]1CN2CC[C@@H]1C[C@H]2[C@H](O)c1cc(-c2cc(Cl)cc(Cl)c2)nc2ccc(OC)cc12	240 nM
Nc1nccc2ccc(-c3ccc(NC(=O)Nc4cc(C(F)(F)F)ccc4F)cc3)cc12	90 nM
COc1cccc2cc(C(=O)N[C@@H](CC(C)C)C(=O)N[C@H](/C=N/N(C)C(=O)OC(C)(C)C)CC(=O)OC(C)(C)C)oc12	650 nM
N#Cc1ccc2[nH]cc(CN3CCC4(CC3)CN(CCNCc3ccccc3)C(=O)O4)c2c1	1160 nM
CNC(=O)c1ccccc1Nc1nc(Nc2cccc(CS(C)(=O)=O)c2)ncc1C	530 nM
COc1ccc(CN2CCCC(OC(c3ccc(F)cc3)c3ccc(F)cc3)C2)c(O)c1 (stereo not given)	610 nM
CN(C)c1cccc(NC(=O)N[C@H]2N=C(c3ccccc3)c3ccccc3N(CC(=O)N3CCCC3)C2=O)c1	250 nM
NC(=O)c1ccccc1Nc1nc(Nc2cccc(N3CCN(CCO)CC3)c2)ncc1Cl	40 nM
CS(=O)(=O)c1ccc2c(c1)CCN(CCC1CCC(NC(=O)C(=Cc3cccc(C#N)c3)c3ccc(-c4ccccc4)cc3)CC1)CC2 (stereo not given)	840 nM
O=C(/C=C/c1ccc(F)c(C(F)(F)F)c1)N1CCC(CN2CCC(c3c[nH]c4ccccc34)CC2)CC1	920 nM
O=C(Nc1ccc(Oc2ccccc2)cc1)N1CCC(CN2CCC(c3c[nH]c4ccccc34)CC2)CC1	610 nM
COc1cc(F)c2ncc(Cl)c(C(O)CN3CCC(NC(=O)c4ccc5c(n4)NC(=O)CO5)CC3)c2c1 (stereo not given)	750 nM
CC(=O)N(Cc1cccc(-c2cccc(CNCc3ccc4c(c3)OCO4)c2)c1)C1CCN(Cc2ccccc2)CC1	840 nM
Nc1c2ccccc2nc2ccc(Cl)cc12	810 nM
COc1cc(C(=O)NC2CCN(Cc3ccccc3)CC2)ccc1-c1nc2cc(Cl)c(C)cc2[nH]1	300 nM
COc1ccc(C=NNc2ccnc3cc(F)c(C)cc23)c2ccccc12	770 nM
COc1cccc(CNC(=O)c2ccnc(-c3ccc(CNCCOc4ccccc4)cc3)c2)c1	1200 nM
NC(N)=NC(=O)Nc1cc(Cl)c(Br)c(Cl)c1	470 nM
COc1cc(Nc2nccc(N3CCC(NC(=O)c4cccc(C#N)c4)C3)n2)cc(OC)c1OC (stereo not given)	990 nM
CC(=O)Nc1ccc(Cl)c(Cl)c1	40 nM
O=C(N[C@H]1CCN(CCc2ccc(O[C@H]3CCNC3)c(F)c2)C1)c1ccc(Cl)c(Cl)c1	1190 nM
C[C@H](Cc1ccc(OCCCCCCOc2ccccc2)cc1)NC[C@H](O)c1cccc(Cl)c1	70 nM
CCCCNC(=O)[C@@H]1CCCN1C(=O)c1ccc(O)c(-c2ccc(Cl)c(Cl)c2)c1	750 nM

Compound	IC50
Oc1cccc2ccc(Nc3ccccn3)nc12	750 nM
COc1ccc(C(=O)NCCCCN2CCC(c3ccc4c(c3OC)CCCC4)CC2)cc1-c1ccc(C(F)(F)F)cc1	750 nM
COc1cc(C(C)C)nc2ccc(NC(=O)c3ccc(C(=O)Nc4ccc5nc(C(C)C)cc(OC)c5c4)cc3)cc12	580 nM
CCCc1c(Cl)cc(CNCCCNc2nc3ccncc3[nH]2)cc1Cl	740 nM
NCc1ccc(CNCc2cccc(-c3cccc(-c4nc5ccccc5[nH]4)c3)c2)cc1	490 nM
COc1cccc(C2CCCN(CCCCNC(=O)c3ccc(NC(=O)c4ccc(Cl)cc4)cc3)C2)c1 (stereo not given)	860 nM
C[C@@H]1CN(CCCn2c3ccccc3c3ccc(C(=O)CCCN(C)C)cc32)C[C@H](C)N1	810 nM
O=C1COc2ccc(CNC3CCC(O)(CCc4ccnc5cc6c(cc45)OCCO6)CC3)nc2N1 (stereo not given)	930 nM
CCCCCOc1ccc(CC(C)NCC(O)c2cccc(Cl)c2)cc1 (stereo not given)	650 nM
CNCCNCc1cccc(-c2ccc(-c3nc4c(C)cccc4[nH]3)cc2)c1	800 nM
Nc1oc2c(CN3CCCCCC3)c(O)ccc2c(=O)c1-c1nc2ccccc2s1	520 nM
CC(=O)C1=NN(c2ccc(Cl)cc2)C(c2cccs2)N1c1ccccc1 (stereo not given)	400 nM
O=C(O)C[C@H](NC(=O)[C@@H]1CCCN1C(=O)c1cccc(-c2ccc(Cl)c(Cl)c2)c1)C(=O)O	860 nM
Nc1nc(N)c2c(ccc3c2ccn3C2C=CCCC2)n1 (stereo not given)	130 nM
CN1CCC(C(=O)N(Cc2ccc(-c3ccc(CNCCc4ccccc4)cn3)cc2)C2CCN(Cc3ccccc3)CC2)CC1	790 nM
COc1ccc2ncc(F)c([C@H](O)CN3CCC(NCc4ccc5c(c4)NC(=O)CS5)CC3)c2c1	190 nM
Cc1ccc2c(NN=Cc3cccc([N+](=O)[O-])c3)cc(C)nc2c1	270 nM
Cc1cc(C2CCN(CCCCNC(=O)c3ccc(-c4ccc(C#N)cc4)cc3)CC2)c(C)cc1O	850 nM
NC1=NC(c2ccccc2)(c2ccccc2)C(=O)N1CC=Cc1ccccc1	600 nM
CCCCCN1CCCC(NS(=O)(=O)c2ccc(C(=O)Nc3ccc(C(F)(F)F)cc3)cc2)C1 (stereo not given)	1630 nM
COc1ccc(-c2c(-c3ccc(OCc4ccccc4)cc3O)n[nH]c2C(F)(F)F)cc1	1170 nM
Cc1noc(-c2ccccc2)c1NC(=O)N1CCN(CCCCCCNC(=O)/C=C/c2ccc(Cl)c(Cl)c2)CC1	880 nM
Cc1cc(N[C@@H](CC(C)C)C(=O)NCCc2ccccc2)nc(NCC2CCCCC2)n1	900 nM
